# Measured values: article PMC11514837 (Toxicological Sciences, 2024)
# Where two headings read alike, the source gives them in different places.
# Assays:
# zebrafish embryos [1] = assay: Zebrafish developmental toxicity screening, wild-type fish; type: in vivo, zebrafish (Danio rerio); conditions: for EC80: nominal concentration causing morphologic malformations in 80% of WT zebrafish; for concentration up to which not toxic in zebrafish: data not shown
# human AHR [2] = biological target: T1, human AHR (Homo sapiens, UniProt P35869); conditions: exposures up to 30 μM
# T1 sequence (P35869 11-848): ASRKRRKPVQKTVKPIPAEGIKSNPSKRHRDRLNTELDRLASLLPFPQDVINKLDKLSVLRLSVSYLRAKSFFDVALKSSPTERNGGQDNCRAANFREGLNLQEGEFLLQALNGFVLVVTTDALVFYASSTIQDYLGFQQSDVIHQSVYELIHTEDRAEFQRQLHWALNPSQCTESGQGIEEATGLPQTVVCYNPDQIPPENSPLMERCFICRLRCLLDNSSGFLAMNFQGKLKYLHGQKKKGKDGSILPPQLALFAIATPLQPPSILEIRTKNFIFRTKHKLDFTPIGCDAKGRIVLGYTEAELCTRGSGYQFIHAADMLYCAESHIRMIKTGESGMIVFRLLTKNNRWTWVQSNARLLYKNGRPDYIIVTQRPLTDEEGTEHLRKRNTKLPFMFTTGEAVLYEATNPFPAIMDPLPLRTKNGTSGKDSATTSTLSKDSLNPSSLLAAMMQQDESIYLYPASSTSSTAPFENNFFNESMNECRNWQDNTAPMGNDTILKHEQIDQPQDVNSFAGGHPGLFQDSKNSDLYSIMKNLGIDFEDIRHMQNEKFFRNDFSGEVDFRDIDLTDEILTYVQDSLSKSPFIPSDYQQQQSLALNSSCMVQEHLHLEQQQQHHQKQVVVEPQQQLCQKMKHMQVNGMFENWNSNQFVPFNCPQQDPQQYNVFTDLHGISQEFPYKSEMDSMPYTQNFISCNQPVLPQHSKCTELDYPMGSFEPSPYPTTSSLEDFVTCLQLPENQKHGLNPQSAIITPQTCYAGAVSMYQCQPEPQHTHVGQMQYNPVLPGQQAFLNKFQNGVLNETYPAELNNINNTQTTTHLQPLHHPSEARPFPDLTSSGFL
# zebrafish Ahr2 = biological target: T2, zebrafish Ahr2 (Danio rerio, UniProt Q9YGV3); type: cell-based; conditions: exposures up to 30 μM
# T2 sequence (Q9YGV3 1-1027): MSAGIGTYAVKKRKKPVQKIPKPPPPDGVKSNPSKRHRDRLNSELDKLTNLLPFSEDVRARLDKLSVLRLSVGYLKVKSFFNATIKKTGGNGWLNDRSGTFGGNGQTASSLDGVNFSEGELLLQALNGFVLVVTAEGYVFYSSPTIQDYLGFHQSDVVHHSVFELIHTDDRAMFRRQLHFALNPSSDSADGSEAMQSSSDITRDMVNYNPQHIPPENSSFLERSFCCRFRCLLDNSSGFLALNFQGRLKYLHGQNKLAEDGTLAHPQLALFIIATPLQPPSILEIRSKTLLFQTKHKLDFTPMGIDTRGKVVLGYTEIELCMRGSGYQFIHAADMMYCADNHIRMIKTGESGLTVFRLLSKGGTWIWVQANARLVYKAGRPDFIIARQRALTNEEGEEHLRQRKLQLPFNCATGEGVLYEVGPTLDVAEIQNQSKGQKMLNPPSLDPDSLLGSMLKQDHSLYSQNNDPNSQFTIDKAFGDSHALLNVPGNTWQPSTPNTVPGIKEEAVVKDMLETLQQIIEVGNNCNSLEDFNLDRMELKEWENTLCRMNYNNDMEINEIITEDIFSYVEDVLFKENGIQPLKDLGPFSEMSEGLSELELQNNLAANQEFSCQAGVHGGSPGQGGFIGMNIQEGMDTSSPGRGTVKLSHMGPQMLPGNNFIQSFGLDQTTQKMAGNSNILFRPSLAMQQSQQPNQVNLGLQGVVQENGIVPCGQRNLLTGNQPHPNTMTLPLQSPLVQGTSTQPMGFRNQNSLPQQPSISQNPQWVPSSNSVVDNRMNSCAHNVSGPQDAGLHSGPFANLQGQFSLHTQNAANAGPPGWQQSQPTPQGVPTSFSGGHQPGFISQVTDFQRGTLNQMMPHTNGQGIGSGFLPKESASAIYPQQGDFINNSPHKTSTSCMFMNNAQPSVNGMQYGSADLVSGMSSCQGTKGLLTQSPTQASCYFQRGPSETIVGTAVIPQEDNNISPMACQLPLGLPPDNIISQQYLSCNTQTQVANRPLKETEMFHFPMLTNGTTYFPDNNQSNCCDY
# Cyp1b1^wh4 zebrafish = type: in vivo; conditions: TCDD
# cyp1a^osu5 zebrafish = type: in vivo; conditions: TCDD, cyp1a^osu5 fish; unit not given
# cyp1a^osu4 zebrafish = type: in vivo; conditions: TCDD, cyp1a^osu4 fish, 1 h exposure at 6 to 8 hpf
# [3] = tested on: cyp1a^cms-gfp zebrafish (EGFP under cyp1a promotor)
# zebrafish embryos [4] = assay: Window of susceptibility developmental toxicity exposures; type: in vivo
# [5] = Retene body burden in zebrafish tissue; type: in vivo
# human AHR [6] = biological target: T1, human AHR
# Ahr2 = conditions: ref Billiard et al. 2002; cited from earlier work
# [7] = Larval metabolite analysis by LC-IM-MS; conditions: zebrafish exposed to 26 µM retene
# [8] = tested on: Ahr2 knockout (ahr2^hu3335) fish; conditions: ref Scott et al. 2011; Wilson et al. 2022; cited from earlier work
smiles,measurement,setting,value
O=c1c2ccccc2oc2ccccc12 [Xanthone],EC80,zebrafish embryos [1],52 µM
O=C1c2ccccc2C(=O)c2c1ccc1ccccc21 [Benzanthraquinone],AHR activation in human HuH-7 luciferase reporter cells,human AHR [2],direct AHR activators
same,Ahr2 activation in zebrafish ZF-4 luciferase reporter cells,zebrafish Ahr2,direct AHR activators
"Clc1cc2c(cc1Cl)Oc1cc(Cl)c(Cl)cc1O2 [TCDD, 2,3,7,8-Tetrachlorodibenzo-p-dioxin]",change in toxicity versus 5D fish,Cyp1b1^wh4 zebrafish,no change in toxicity
same,BMC,cyp1a^osu5 zebrafish,0.56 ± 0.13
same,BMC50,cyp1a^osu4 zebrafish,0.41 ± 0.07 nM
c1ccc2c(c1)cc1ccc3cccc4ccc2c1c34 [Benzo[a]pyrene],AHR activation in human HuH-7 luciferase reporter cells,human AHR [2],activator
same,Ahr2 activation in zebrafish ZF-4 luciferase reporter cells,zebrafish Ahr2,activator
"c1ccc2cc3c(cc2c1)-c1cccc2cccc-3c12 [Benzo[k]fluoranthene, Benzo(k)fluoranthene]",EGFP expression at 23 hpf / early hours,"[3]; cyp1a^cms-gfp fish, retene 26 μM, benzo[k]fluoranthene 8.9 μM",strong widespread EGFP expression
same,AHR activation in human HuH-7 luciferase reporter cells,human AHR [2],direct AHR activators
same,Ahr2 activation in zebrafish ZF-4 luciferase reporter cells,zebrafish Ahr2,direct AHR activators
"Cc1cccc2c1ccc1cc(C(C)C)ccc12 [Retene, 1-methyl-7-isopropylphenanthrene]",BMC50,"zebrafish embryos [4]; exposure window 6 to 48 hpf, screened at 120 hpf",52 ± 4 µM
same,developmental toxicity response,zebrafish embryos [4]; exposure window 48 to 120 hpf,little response
same,increase in body burden from 12 to 24 hpf,[5]; 30 μM retene from 6 hpf,greater than 3 fold
same,tissue burden at 48 hpf,[5]; 30 μM retene from 6 hpf,decreased to near-baseline
same,24 hpf body burden,[5]; static exposure to 30 μM retene from 6 hpf,31 ng/fish
same,effect of supplementation with human liver s9 on reporter activity,human AHR [6],did not lead to an increase in reporter activity
same,times less strong at binding Ahr2 than 1-methylphenanthrene,Ahr2,3 ×
same,times less strong at binding Ahr2 than benzo[b]fluoranthene,Ahr2,73 ×
same,EGFP expression at 23 hpf / early hours,"[3]; zebrafish, in vivo",control-like EGFP expression
same,retene metabolites in tissue extracts at 12 and 24 hpf,[7],No retene metabolites were detected
same,Ahr2 dependence of toxicity in developing zebrafish,[8],Ahr2 dependent toxicity
same,AHR activation in human HuH-7 luciferase reporter cells,human AHR [2],minimal reporter activity
same,Ahr2 activation in zebrafish ZF-4 luciferase reporter cells,zebrafish Ahr2,no significant activation
same,Ahr2 activation in zebrafish ZF-4 luciferase reporter cells,zebrafish Ahr2; listed as retene,do not respond
"Cc1cccc2c1ccc1ccccc12 [1-methylphenathrene, 1-methylphenanthrene]",concentration up to which not toxic in zebrafish,zebrafish embryos [1],> 100 µM
c1ccc2c(c1)-c1cccc3c1c-2cc1ccccc13 [Benzo[b]fluoranthene],AHR activation in human HuH-7 luciferase reporter cells,human AHR [2],direct AHR activators
same,Ahr2 activation in zebrafish ZF-4 luciferase reporter cells,zebrafish Ahr2,direct AHR activators
same,concentration up to which not toxic in zebrafish,zebrafish embryos [1],> 100 µM
c1ccc2c3c(ccc2c1)-c1cccc2cccc-3c12 [Benzo[j]fluoranthene],AHR activation in human HuH-7 luciferase reporter cells,human AHR [2],direct AHR activators
same,Ahr2 activation in zebrafish ZF-4 luciferase reporter cells,zebrafish Ahr2,direct AHR activators
same,EC80,zebrafish embryos [1],could not be determined
